Source: the NIST ThermoML archive (doi:10.1016/j.jct.2012.03.031)
Values joined by “and” are separate entries in the source; they are usually repeats but may differ in a detail not shown here. Equal entries are not always repeated. Numbers after ± are expanded uncertainties.

Test: molar heat capacity at constant pressure
Conditions: 101.33 kPa

CCCCc1ccc(C(=O)Oc2ccc(C#N)c(F)c2)cc1 [4-cyano-3-fluorophenyl 4-butylbenzoate]
Conditions	molar heat capacity at constant pressure
61.92 K, Crystal 1, Small (less than 1 g) adiabatic calorimetry	106.31 ± 0.83 J/K/mol
63.2 K, Crystal 1, Small (less than 1 g) adiabatic calorimetry	108.1 ± 0.85 J/K/mol
63.41 K, Crystal 1, Small (less than 1 g) adiabatic calorimetry	108.62 ± 0.85 J/K/mol
63.57 K, Crystal 2, Small (less than 1 g) adiabatic calorimetry	113.15 ± 0.88 J/K/mol
64.91 K, Crystal 1, Small (less than 1 g) adiabatic calorimetry	110.74 ± 0.86 J/K/mol
65.24 K, Crystal 2, Small (less than 1 g) adiabatic calorimetry	115.68 ± 0.89 J/K/mol
65.3 K, Crystal 1, Small (less than 1 g) adiabatic calorimetry	111.15 ± 0.86 J/K/mol
66.41 K, Crystal 1, Small (less than 1 g) adiabatic calorimetry	112.9 ± 0.87 J/K/mol
66.93 K, Crystal 2, Small (less than 1 g) adiabatic calorimetry	118.1 ± 0.91 J/K/mol
67.38 K, Crystal 1, Small (less than 1 g) adiabatic calorimetry	114.12 ± 0.88 J/K/mol
67.91 K, Crystal 1, Small (less than 1 g) adiabatic calorimetry	115.02 ± 0.89 J/K/mol
68.62 K, Crystal 2, Small (less than 1 g) adiabatic calorimetry	120.58 ± 0.92 J/K/mol
69.41 K, Crystal 1, Small (less than 1 g) adiabatic calorimetry	117.19 ± 0.9 J/K/mol
69.46 K, Crystal 1, Small (less than 1 g) adiabatic calorimetry	117 ± 0.9 J/K/mol
70 K, Crystal 1, Vacuum adiabatic calorimetry	117.76 ± 0.78 J/K/mol
70 K, Crystal 2, Vacuum adiabatic calorimetry	122.57 ± 0.81 J/K/mol
70.32 K, Crystal 2, Small (less than 1 g) adiabatic calorimetry	123.03 ± 0.94 J/K/mol
70.92 K, Crystal 1, Small (less than 1 g) adiabatic calorimetry	119.27 ± 0.91 J/K/mol
71.53 K, Crystal 1, Small (less than 1 g) adiabatic calorimetry	119.9 ± 0.91 J/K/mol
72.11 K, Crystal 2, Small (less than 1 g) adiabatic calorimetry	125.5 ± 0.95 J/K/mol
72.44 K, Crystal 1, Small (less than 1 g) adiabatic calorimetry	121.32 ± 0.92 J/K/mol
73.59 K, Crystal 1, Small (less than 1 g) adiabatic calorimetry	122.75 ± 0.93 J/K/mol
73.96 K, Crystal 1, Small (less than 1 g) adiabatic calorimetry	123.47 ± 0.94 J/K/mol
74.05 K, Crystal 2, Small (less than 1 g) adiabatic calorimetry	128.27 ± 0.97 J/K/mol
75.49 K, Crystal 1, Small (less than 1 g) adiabatic calorimetry	125.48 ± 0.95 J/K/mol
75.66 K, Crystal 1, Small (less than 1 g) adiabatic calorimetry	125.55 ± 0.95 J/K/mol
76.08 K, Crystal 2, Small (less than 1 g) adiabatic calorimetry	131.11 ± 0.99 J/K/mol
77.02 K, Crystal 1, Small (less than 1 g) adiabatic calorimetry	127.52 ± 0.96 J/K/mol
77.72 K, Crystal 1, Small (less than 1 g) adiabatic calorimetry	128.25 ± 0.97 J/K/mol
78.1 K, Crystal 2, Small (less than 1 g) adiabatic calorimetry	133.74 ± 1 J/K/mol
78.56 K, Crystal 1, Small (less than 1 g) adiabatic calorimetry	129.55 ± 0.97 J/K/mol
79.79 K, Crystal 1, Small (less than 1 g) adiabatic calorimetry	130.94 ± 0.98 J/K/mol
80 K, Crystal 1, Vacuum adiabatic calorimetry	131.22 ± 0.86 J/K/mol
80 K, Crystal 2, Vacuum adiabatic calorimetry	136.34 ± 0.89 J/K/mol
80.1 K, Crystal 1, Small (less than 1 g) adiabatic calorimetry	131.58 ± 0.99 J/K/mol
80.14 K, Crystal 2, Small (less than 1 g) adiabatic calorimetry	136.53 ± 1 J/K/mol
81.65 K, Crystal 1, Small (less than 1 g) adiabatic calorimetry	133.56 ± 1 J/K/mol
81.86 K, Crystal 1, Small (less than 1 g) adiabatic calorimetry	133.65 ± 1 J/K/mol
82.17 K, Crystal 2, Small (less than 1 g) adiabatic calorimetry	139.24 ± 1 J/K/mol
83.21 K, Crystal 1, Small (less than 1 g) adiabatic calorimetry	135.55 ± 1 J/K/mol
83.93 K, Crystal 1, Small (less than 1 g) adiabatic calorimetry	136.28 ± 1 J/K/mol
84.22 K, Crystal 2, Small (less than 1 g) adiabatic calorimetry	141.95 ± 1.1 J/K/mol
84.77 K, Crystal 1, Small (less than 1 g) adiabatic calorimetry	137.59 ± 1 J/K/mol
86 K, Crystal 1, Small (less than 1 g) adiabatic calorimetry	138.9 ± 1 J/K/mol
86.27 K, Crystal 2, Small (less than 1 g) adiabatic calorimetry	144.59 ± 1.1 J/K/mol
86.34 K, Crystal 1, Small (less than 1 g) adiabatic calorimetry	139.51 ± 1 J/K/mol
87.92 K, Crystal 1, Small (less than 1 g) adiabatic calorimetry	141.49 ± 1.1 J/K/mol
88.19 K, Crystal 1, Small (less than 1 g) adiabatic calorimetry	141.58 ± 1.1 J/K/mol
88.32 K, Crystal 2, Small (less than 1 g) adiabatic calorimetry	147.21 ± 1.1 J/K/mol
89.5 K, Crystal 1, Small (less than 1 g) adiabatic calorimetry	143.41 ± 1.1 J/K/mol
90 K, Crystal 1, Vacuum adiabatic calorimetry	143.78 ± 0.93 J/K/mol
90 K, Crystal 2, Vacuum adiabatic calorimetry	149.41 ± 0.96 J/K/mol
90.38 K, Crystal 2, Small (less than 1 g) adiabatic calorimetry	149.91 ± 1.1 J/K/mol
90.49 K, Crystal 1, Small (less than 1 g) adiabatic calorimetry	144.38 ± 1.1 J/K/mol
91.1 K, Crystal 1, Small (less than 1 g) adiabatic calorimetry	145.38 ± 1.1 J/K/mol
92.46 K, Crystal 2, Small (less than 1 g) adiabatic calorimetry	152.54 ± 1.1 J/K/mol
92.69 K, Crystal 1, Small (less than 1 g) adiabatic calorimetry	147.26 ± 1.1 J/K/mol
92.79 K, Crystal 1, Small (less than 1 g) adiabatic calorimetry	147.14 ± 1.1 J/K/mol
94.3 K, Crystal 1, Small (less than 1 g) adiabatic calorimetry	149.22 ± 1.1 J/K/mol
94.53 K, Crystal 2, Small (less than 1 g) adiabatic calorimetry	155.21 ± 1.1 J/K/mol
95.09 K, Crystal 1, Small (less than 1 g) adiabatic calorimetry	149.9 ± 1.1 J/K/mol
95.91 K, Crystal 1, Small (less than 1 g) adiabatic calorimetry	151.12 ± 1.1 J/K/mol
96.62 K, Crystal 2, Small (less than 1 g) adiabatic calorimetry	157.81 ± 1.1 J/K/mol
97.38 K, Crystal 1, Small (less than 1 g) adiabatic calorimetry	152.62 ± 1.1 J/K/mol
97.53 K, Crystal 1, Small (less than 1 g) adiabatic calorimetry	153.02 ± 1.1 J/K/mol
98.72 K, Crystal 2, Small (less than 1 g) adiabatic calorimetry	160.47 ± 1.2 J/K/mol
99.17 K, Crystal 1, Small (less than 1 g) adiabatic calorimetry	154.93 ± 1.1 J/K/mol
99.68 K, Crystal 1, Small (less than 1 g) adiabatic calorimetry	155.3 ± 1.1 J/K/mol
100 K, Crystal 1, Vacuum adiabatic calorimetry	155.66 ± 0.99 J/K/mol
100 K, Crystal 2, Vacuum adiabatic calorimetry	162.05 ± 1 J/K/mol
100.8 K, Crystal 1, Small (less than 1 g) adiabatic calorimetry	156.84 ± 1.1 J/K/mol
100.83 K, Crystal 2, Small (less than 1 g) adiabatic calorimetry	163.07 ± 1.2 J/K/mol
101.98 K, Crystal 1, Small (less than 1 g) adiabatic calorimetry	157.93 ± 1.1 J/K/mol
102.45 K, Crystal 1, Small (less than 1 g) adiabatic calorimetry	158.74 ± 1.1 J/K/mol
102.94 K, Crystal 2, Small (less than 1 g) adiabatic calorimetry	165.76 ± 1.2 J/K/mol
104.1 K, Crystal 1, Small (less than 1 g) adiabatic calorimetry	160.69 ± 1.2 J/K/mol
104.29 K, Crystal 1, Small (less than 1 g) adiabatic calorimetry	160.64 ± 1.2 J/K/mol
105.07 K, Crystal 2, Small (less than 1 g) adiabatic calorimetry	168.36 ± 1.2 J/K/mol
105.76 K, Crystal 1, Small (less than 1 g) adiabatic calorimetry	162.57 ± 1.2 J/K/mol
106.6 K, Crystal 1, Small (less than 1 g) adiabatic calorimetry	163.27 ± 1.2 J/K/mol
107.21 K, Crystal 2, Small (less than 1 g) adiabatic calorimetry	170.99 ± 1.2 J/K/mol
107.43 K, Crystal 1, Small (less than 1 g) adiabatic calorimetry	164.48 ± 1.2 J/K/mol
108.92 K, Crystal 1, Small (less than 1 g) adiabatic calorimetry	165.88 ± 1.2 J/K/mol
109.11 K, Crystal 1, Small (less than 1 g) adiabatic calorimetry	166.36 ± 1.2 J/K/mol
109.36 K, Crystal 2, Small (less than 1 g) adiabatic calorimetry	173.6 ± 1.2 J/K/mol
110 K, Crystal 1, Vacuum adiabatic calorimetry	167.09 ± 1.1 J/K/mol
110 K, Crystal 2, Vacuum adiabatic calorimetry	174.41 ± 1.1 J/K/mol
110.8 K, Crystal 1, Small (less than 1 g) adiabatic calorimetry	168.33 ± 1.2 J/K/mol
111.24 K, Crystal 1, Small (less than 1 g) adiabatic calorimetry	168.49 ± 1.2 J/K/mol
111.51 K, Crystal 2, Small (less than 1 g) adiabatic calorimetry	176.31 ± 1.3 J/K/mol
112.5 K, Crystal 1, Small (less than 1 g) adiabatic calorimetry	170.17 ± 1.2 J/K/mol
113.57 K, Crystal 1, Small (less than 1 g) adiabatic calorimetry	171.15 ± 1.2 J/K/mol
113.68 K, Crystal 2, Small (less than 1 g) adiabatic calorimetry	178.98 ± 1.3 J/K/mol
114.2 K, Crystal 1, Small (less than 1 g) adiabatic calorimetry	172.16 ± 1.2 J/K/mol
115.87 K, Crystal 2, Small (less than 1 g) adiabatic calorimetry	181.77 ± 1.3 J/K/mol
115.91 K, Crystal 1, Small (less than 1 g) adiabatic calorimetry	173.74 ± 1.2 J/K/mol and 174.07 ± 1.2 J/K/mol
117.64 K, Crystal 1, Small (less than 1 g) adiabatic calorimetry	175.95 ± 1.2 J/K/mol
118.06 K, Crystal 2, Small (less than 1 g) adiabatic calorimetry	184.44 ± 1.3 J/K/mol
118.26 K, Crystal 1, Small (less than 1 g) adiabatic calorimetry	176.37 ± 1.3 J/K/mol
119.36 K, Crystal 1, Small (less than 1 g) adiabatic calorimetry	177.93 ± 1.3 J/K/mol
120 K, Crystal 1, Vacuum adiabatic calorimetry	178.29 ± 1.1 J/K/mol
120 K, Crystal 2, Vacuum adiabatic calorimetry	186.87 ± 1.2 J/K/mol
120.27 K, Crystal 2, Small (less than 1 g) adiabatic calorimetry	187.2 ± 1.3 J/K/mol
120.61 K, Crystal 1, Small (less than 1 g) adiabatic calorimetry	178.97 ± 1.3 J/K/mol
121.1 K, Crystal 1, Small (less than 1 g) adiabatic calorimetry	179.82 ± 1.3 J/K/mol
122.48 K, Crystal 2, Small (less than 1 g) adiabatic calorimetry	189.96 ± 1.4 J/K/mol
122.85 K, Crystal 1, Small (less than 1 g) adiabatic calorimetry	181.85 ± 1.3 J/K/mol
122.98 K, Crystal 1, Small (less than 1 g) adiabatic calorimetry	181.61 ± 1.3 J/K/mol
124.61 K, Crystal 1, Small (less than 1 g) adiabatic calorimetry	182.88 ± 1.3 J/K/mol
124.71 K, Crystal 2, Small (less than 1 g) adiabatic calorimetry	192.76 ± 1.4 J/K/mol
125.35 K, Crystal 1, Small (less than 1 g) adiabatic calorimetry	184.23 ± 1.3 J/K/mol
126.37 K, Crystal 1, Small (less than 1 g) adiabatic calorimetry	185.75 ± 1.3 J/K/mol
126.95 K, Crystal 2, Small (less than 1 g) adiabatic calorimetry	195.55 ± 1.4 J/K/mol
127.73 K, Crystal 1, Small (less than 1 g) adiabatic calorimetry	186.92 ± 1.3 J/K/mol
128.14 K, Crystal 1, Small (less than 1 g) adiabatic calorimetry	187.6 ± 1.3 J/K/mol
129.2 K, Crystal 2, Small (less than 1 g) adiabatic calorimetry	198.34 ± 1.4 J/K/mol
129.93 K, Crystal 1, Small (less than 1 g) adiabatic calorimetry	189.59 ± 1.3 J/K/mol
130 K, Crystal 1, Vacuum adiabatic calorimetry	189.39 ± 1.2 J/K/mol
130 K, Crystal 2, Vacuum adiabatic calorimetry	199.38 ± 1.3 J/K/mol
130.12 K, Crystal 1, Small (less than 1 g) adiabatic calorimetry	189.53 ± 1.3 J/K/mol
131.47 K, Crystal 2, Small (less than 1 g) adiabatic calorimetry	201.3 ± 1.4 J/K/mol
131.72 K, Crystal 1, Small (less than 1 g) adiabatic calorimetry	191.62 ± 1.4 J/K/mol
132.53 K, Crystal 1, Small (less than 1 g) adiabatic calorimetry	192.14 ± 1.4 J/K/mol
133.51 K, Crystal 1, Small (less than 1 g) adiabatic calorimetry	193.32 ± 1.4 J/K/mol
133.74 K, Crystal 2, Small (less than 1 g) adiabatic calorimetry	204.25 ± 1.4 J/K/mol
134.94 K, Crystal 1, Small (less than 1 g) adiabatic calorimetry	194.79 ± 1.4 J/K/mol
135.4 K, Crystal 1, Small (less than 1 g) adiabatic calorimetry	195.42 ± 1.4 J/K/mol
136.03 K, Crystal 2, Small (less than 1 g) adiabatic calorimetry	207.21 ± 1.5 J/K/mol
137.37 K, Crystal 1, Small (less than 1 g) adiabatic calorimetry	197.39 ± 1.4 J/K/mol and 197.54 ± 1.4 J/K/mol
138.33 K, Crystal 2, Small (less than 1 g) adiabatic calorimetry	210.2 ± 1.5 J/K/mol
139.32 K, Crystal 1, Small (less than 1 g) adiabatic calorimetry	199.71 ± 1.4 J/K/mol
139.8 K, Crystal 1, Small (less than 1 g) adiabatic calorimetry	200.05 ± 1.4 J/K/mol
140 K, Crystal 1, Vacuum adiabatic calorimetry	200.27 ± 1.2 J/K/mol
140 K, Crystal 2, Vacuum adiabatic calorimetry	212.43 ± 1.3 J/K/mol
140.64 K, Crystal 2, Small (less than 1 g) adiabatic calorimetry	213.3 ± 1.5 J/K/mol
